Source: patent US12070448B2, “Use of carbamate compound for prevention, alleviation or treatment of status epilepticus” (SK BIOPHARMACEUTICALS CO., LTD., priority 2018, dated 2024)

Tests used:
[1] = tested on: pilocarpine-induced status epilepticus; test: Pilocarpine-induced status epilepticus in mice; format: in vivo, mouse; conditions: for Mortality: 50 min
Protocol: Male mice (C57BL/6, 21-24 g) were used. The experimental animals were housed under a 12-hour light/dark cycle (lighting from 7 pm to 7 am) and maintained at a temperature of 22-25° C. and about 40 to 60% relative humidity. Food and water were provided ad libitum. The animals were randomly divided into the following groups. […]
Experimental Groups of Administering Positive Control and Test Compound 10 Minutes after Onset of Status Epilepticus • As a control, 13 mice intraperitoneally single administered with 30% PEG300 (vehicle) at a volume of 10 ml/kg • As a positive control, 12 mice intraperitoneally single administered valproic acid (VPA) at a dose of 200 mg/kg (10 ml/kg) • 13 Mice intraperitoneally single administered Test Compound at a dose of 25 mg/kg (10 ml/kg) Induction of Status Epilepticus
Methylscopolamine was dissolved in a vehicle (0.9% saline) at a concentration of 1 mg/kg (10 m/kg) and administered subcutaneously to the back of the neck. After 30 minutes, pilocarpine was dissolved in a vehicle (0.9% saline) at a concentration of 320 mg/kg (10 ml/kg) and administered intraperitoneally.
In the case of the drug-administered experimental groups 10 minutes after onset of status epilepticus, valproic acid and Test Compound were administered 10 minutes after onset of status epilepticus. […]
In the case of the drug-administered experimental groups 10 minutes after onset of status epilepticus, Test Compound was administered intraperitoneally at a dose of 25 mg/kg (10 ml/kg). At the same time point, valproic acid (positive control group) was administered intraperitoneally at a dose of 200 mg/kg (10 ml/kg). […]
In the case of the drug-administered experimental groups 10 minutes after onset of status epilepticus, the effects of the compound were represented as the mean±standard error, and statistical significance was recognized when there was a difference of p<0.05 in data using one-way ANOVA and a Tukey's test as a post-hoc test.

[2] = tested on: low Mg2+-induced seizure-like events (SLEs) in CA1 pyramidal neurons of hippocampal slices; test: Whole-cell patch-clamp model of low Mg2+-induced seizure-like events in mouse hippocampal slices; format: cell-based; conditions: for Duration of SLE in comparison with before treatment of Test Compound, during treatment / Number of SLE in comparison with before treatment of Test Compound, during treatment: 100 μM; for Duration of SLE in comparison with before treatment of Test Compound, during treatment / Number of SLE in comparison with before treatment of Test Compound, during treatment / Duration of SLE in comparison with before treatment of Test Compound, after washing / Number of SLE in comparison with before treatment of Test Compound, after washing: mean±standard error; for Duration of SLE in comparison with before treatment of Test Compound, after washing / Number of SLE in comparison with before treatment of Test Compound, after washing: after washout of 100 μM
Protocol: Male mice (C57BL/6, 24-26 g) were used. The experimental animals were housed under a 12-hour light/dark cycle (lighting from 7 pm to 7 am) and maintained at a temperature of 22-25° C. and about 40 to 60% relative humidity. Food and water were provided ad libitum.
For whole-cell patch-clamp recording, the brain of the mouse was excised, and the hippocampal slices ([…]) were prepared with oxygenated artificial cerebrospinal fluid (ACSF) (124 mM NaCl, 3.0 mM KCl, 1.23 mM NaH2PO4, 2.2 mM CaCl2, 1.2 mM MgCl2, 26 mM NaHCO3, and 10 mM glucose, pH 7.4). All experiments were performed in visually guided CA1 pyramidal neurons, and a glass pipette (4-5 MΩ) was used for recording. After incubating the tissue for 1 hour, a single slice was submerged in a recording chamber and continuously superfused with oxygenated artificial cerebrospinal fluid (32° C.; 95% O2/5% CO2).
For low Mg^2+-induced seizure-like events (SLEs) measurement, 0 mM MgCl2 and 5.0 mM KCl were used. SLEs were defined by more than three spikes in a burst. Whole-cell patch-clamp currents were digitized with a MultiClamp 700B amplifier and a Digidata 1440 (Axon Instruments, CA), and the acquired data were analyzed with the pCLAMP version 10.2 (Axon Instruments) and the Mini Analysis Program (Synaptosoft).
Early SLEs (immediately after onset of SLEs): measurement of SLEs observed 20-30 minutes after the application of low Mg^2+ ACSF.
Late SLEs (after 1 hour incubation in low Mg^2+ ACSF): measurement of SLEs observed immediately after whole-cell rupture.
The treatment of the compound for measuring the effect of Test Compound was initiated 10-15 minutes after the occurrence of SLEs.
The effect of Test Compound was a comparison value (%) to the SLE value that occurred after the treatment of low Mg^2+ ACSF and before the treatment of Test Compound, and was represented as the mean±standard error. When there was a difference of p<0.05 in data by using Student's t-test, statistical significance was recognized.

[3] = Drug administration 10 min after onset of status epilepticus, 200 mg/kg i.p., observed 50 min, mean±standard error
[4] = Early SLE, treatment started 10-15 min after occurrence of SLE, n=5
[5] = Early and late SLEs, 100 μM treated 10-15 minutes after occurrence of SLE, compared to after washing
[6] = Late SLE (after 1 hour in low Mg2+ ACSF), n=8

CCCC(CCC)C(=O)O [Positive control group, valproic acid, reference compound]
Mortality ([1]; Drug administration 10 min after onset of status epilepticus, 200 mg/kg i.p.): 14% | Seizure count [1, 3]: 0.8 ± 0.18 | Seizure score (modified Racine score) [1, 3]: 3.2 ± 0.39

NC(=O)O[C@@H](Cn1ncnn1)c1ccccc1Cl [Test Compound, Carbamic acid (R)-1-(2-chlorophenyl)-2-tetrazol-2-yl-ethyl ester]
Mortality, result in words ([1]; 20 mg/kg i.p. immediately after occurrence of status epilepticus, compared to the control group): tendency to suppress mortality | Mortality ([1]; Drug administration 10 min after onset of status epilepticus, 25 mg/kg i.p.): 0% | Mortality ([1]; Drug administration immediately after onset of status epilepticus, 20 mg/kg i.p.): 0% | Duration of SLE in comparison with before treatment of Test Compound, during treatment [2, 4]: 15.39 ± 6.82% | Number of SLE in comparison with before treatment of Test Compound, during treatment [2, 4]: 31.45 ± 16.13% | Duration of SLE in comparison with before treatment of Test Compound, after washing ([2]; Early SLE, n=5): 83.63 ± 5.14% | Number of SLE in comparison with before treatment of Test Compound, after washing ([2]; Early SLE, n=5): 91.99 ± 16.47% | Duration of SLE, result in words [2, 5]: significantly reduced | Number of SLE, result in words [2, 5]: significantly reduced | Duration of SLE in comparison with before treatment of Test Compound, during treatment [2, 6]: 42.61 ± 3.50% | Number of SLE in comparison with before treatment of Test Compound, during treatment [2, 6]: 62.12 ± 5.59% | Duration of SLE in comparison with before treatment of Test Compound, after washing ([2]; Late SLE, n=8): 81.81 ± 13.78% | Number of SLE in comparison with before treatment of Test Compound, after washing ([2]; Late SLE, n=8): 92.36 ± 8.21%
